Source: the supplement of paper PMC11451515

What was measured:
Details in all cases: 48 h
[1] = system: SEM cells; assay: AUC of viability dose-response curve (% viability x log10 dose units); higher = less sensitive
Procedure, shortened: (§1)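 Seeding of medium-adapted leukemia cells was at 500 or 1000 cells/well in 1536-well plates, followed by 48 h at 37°C with library compounds in DMSO at 11 threefold doses from 47 μM to 0.79 nM. CellTiter-Glo One luminescence was normalised per plate to DMSO and cell-free wells and fitted as a four-parameter log-logistic function of log10 dose. Area under the curve was integrated by trapezoidal rule, with curves exceeding full viability scaled and curves failing quality control removed.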

[2] = system: NOMO1; assay: as above
Procedure, shortened: as §1

[3] = system: P12-Ichikawa; assay: as above
Procedure, shortened: as §1

[4] = system: SEM cells; assay: cell viability relative to DMSO control; higher = less cytotoxic
Procedure, shortened: (§2)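 NOMO1, SEM and P12-Ichikawa leukemia cells spent at least four passages adapting to each medium before use. They were seeded at 500 cells/well (NOMO1, SEM) or 1000 cells/well (P12-Ichikawa) in 5 μl in 1536-well plates and pin-dosed with library compounds in DMSO at 11 threefold steps from 47 μM down to 0.79 nM. After 48 h at 37°C, CellTiter-Glo One luminescence was read. Viability is reported as a percentage of the DMSO wells on each plate, with cell-free wells as background.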

[5] = system: NOMO1; assay: as above
Procedure, shortened: as §2

[6] = system: P12-Ichikawa; assay: as above
Procedure, shortened: as §2

C[C@H]1[C@@H](C(=O)C[C@H]2O[C@@H]3O[C@]4(C)CC[C@H]5[C@H](C)CC[C@@H]([C@H]2C)[C@@]35OO4)O[C@@H]2O[C@]3(C)CC[C@H]4[C@H](C)CC[C@@H]1[C@@]24OO3
AUC of viability dose-response curve
Details	[1]	[2]	[3]
HPLM + 10% dialyzed FBS	411	435	433
RPMI 5 mM glucose + 10% FBS	407	436	435
RPMI 5 mM glucose + 10% dialyzed FBS	432	418	421

cell viability [%]
Details	[4]	[5]	[6]
HPLM + 10% dialyzed FBS, 0.000781 µM	92.6	114	117
HPLM + 10% dialyzed FBS, 0.00234 µM	106	121	113
HPLM + 10% dialyzed FBS, 0.00702 µM	95.1	122	116
HPLM + 10% dialyzed FBS, 0.0211 µM	83.9	102	124
HPLM + 10% dialyzed FBS, 0.0632 µM	102	127	115
HPLM + 10% dialyzed FBS, 0.19 µM	84.1	115	119
HPLM + 10% dialyzed FBS, 0.569 µM	84.6	116	113
HPLM + 10% dialyzed FBS, 1.71 µM	91.5	102	110
HPLM + 10% dialyzed FBS, 5.12 µM	89	111	90.1
HPLM + 10% dialyzed FBS, 15.4 µM	75.4	67	86.3
HPLM + 10% dialyzed FBS, 46.1 µM	6.82	21	14.4
RPMI 5 mM glucose + 10% FBS, 0.000781 µM	87.2	103	117
RPMI 5 mM glucose + 10% FBS, 0.00234 µM	112	117	130
RPMI 5 mM glucose + 10% FBS, 0.00702 µM	116	102	121
RPMI 5 mM glucose + 10% FBS, 0.0211 µM	109	99.4	121
RPMI 5 mM glucose + 10% FBS, 0.0632 µM	113	110	120
RPMI 5 mM glucose + 10% FBS, 0.19 µM	107	110	119
RPMI 5 mM glucose + 10% FBS, 0.569 µM	105	103	102
RPMI 5 mM glucose + 10% FBS, 1.71 µM	96.8	109	104
RPMI 5 mM glucose + 10% FBS, 5.12 µM	72.1	105	102
RPMI 5 mM glucose + 10% FBS, 15.4 µM	53.1	58.4	82.7
RPMI 5 mM glucose + 10% FBS, 46.1 µM	5.74	24.8	9.74
RPMI 5 mM glucose + 10% dialyzed FBS, 0.000781 µM	96.3	114	120
RPMI 5 mM glucose + 10% dialyzed FBS, 0.00234 µM	114	131	111
RPMI 5 mM glucose + 10% dialyzed FBS, 0.00702 µM	115	105	112
RPMI 5 mM glucose + 10% dialyzed FBS, 0.0211 µM	99.7	120	113
RPMI 5 mM glucose + 10% dialyzed FBS, 0.0632 µM	113	122	110
RPMI 5 mM glucose + 10% dialyzed FBS, 0.19 µM	109	107	101
RPMI 5 mM glucose + 10% dialyzed FBS, 0.569 µM	116	93.9	98.8
RPMI 5 mM glucose + 10% dialyzed FBS, 1.71 µM	96.9	95.2	102
RPMI 5 mM glucose + 10% dialyzed FBS, 5.12 µM	92.9	96.2	93.6
RPMI 5 mM glucose + 10% dialyzed FBS, 15.4 µM	75	69	56.1
RPMI 5 mM glucose + 10% dialyzed FBS, 46.1 µM	7.69	24.6	15.4

CC[C@@H]1/C=C(\C)C[C@H](C)C[C@H](OC)[C@H]2O[C@@](O)(C(=O)C(=O)N3CCCC[C@H]3C(=O)O[C@H](/C(C)=C/[C@@H]3CC[C@H](Cl)[C@H](OC)C3)[C@H](C)[C@@H](O)CC1=O)[C@H](C)C[C@@H]2OC
AUC of viability dose-response curve
Details	[1]	[2]	[3]
HPLM + 10% dialyzed FBS	451	457	467
RPMI 5 mM glucose + 10% FBS	453	466	456
RPMI 5 mM glucose + 10% dialyzed FBS	449	474	468

[4], HPLM + 10% dialyzed FBS
Details	cell viability [%]
0.000781 µM	115
0.00234 µM	128
0.00702 µM	117
0.0211 µM	135
0.0632 µM	122
0.19 µM	128
0.569 µM	117
1.71 µM	109
5.12 µM	109
15.4 µM	105
46.1 µM	104

Cc1cncc2cccc([S+](=O)([O-])N3CCCN(C(=O)CN)C[C@@H]3C)c12
AUC of viability dose-response curve
Details	[1]	[2]	[3]
HPLM + 10% dialyzed FBS	419	455	401
RPMI 5 mM glucose + 10% FBS	397	446	401
RPMI 5 mM glucose + 10% dialyzed FBS	392	438	412

[4], HPLM + 10% dialyzed FBS
Details	cell viability [%]
0.000781 µM	94.8
0.00234 µM	114
0.00702 µM	126
0.0211 µM	124
0.0632 µM	122
0.19 µM	134
0.569 µM	138
1.71 µM	137
5.12 µM	79
15.4 µM	66.7
46.1 µM	39.9

CC(C)N(CC[C@H](c1ccccc1)c1cc(CO)ccc1O)C(C)C
AUC of viability dose-response curve
Details	[1]	[2]	[3]
HPLM + 10% dialyzed FBS	462	455	464
RPMI 5 mM glucose + 10% FBS	473	468	461
RPMI 5 mM glucose + 10% dialyzed FBS	461	462	466

cell viability [%], HPLM + 10% dialyzed FBS
Details	[4]	[6]
0.000781 µM	106	127
0.00234 µM	118	123
0.00702 µM	125	120
0.0211 µM	141	126
0.0632 µM	131	139
0.19 µM	139	137
0.569 µM	129	140
1.71 µM	134	138
5.12 µM	151	129
15.4 µM	135	128
46.1 µM	119	135
